Molecular target: hERG potassium channel (Homo sapiens, UniProt Q12809)
Assay: radio-ligand competitive binding assay

Sequence of hERG potassium channel (Q12809 whole entry): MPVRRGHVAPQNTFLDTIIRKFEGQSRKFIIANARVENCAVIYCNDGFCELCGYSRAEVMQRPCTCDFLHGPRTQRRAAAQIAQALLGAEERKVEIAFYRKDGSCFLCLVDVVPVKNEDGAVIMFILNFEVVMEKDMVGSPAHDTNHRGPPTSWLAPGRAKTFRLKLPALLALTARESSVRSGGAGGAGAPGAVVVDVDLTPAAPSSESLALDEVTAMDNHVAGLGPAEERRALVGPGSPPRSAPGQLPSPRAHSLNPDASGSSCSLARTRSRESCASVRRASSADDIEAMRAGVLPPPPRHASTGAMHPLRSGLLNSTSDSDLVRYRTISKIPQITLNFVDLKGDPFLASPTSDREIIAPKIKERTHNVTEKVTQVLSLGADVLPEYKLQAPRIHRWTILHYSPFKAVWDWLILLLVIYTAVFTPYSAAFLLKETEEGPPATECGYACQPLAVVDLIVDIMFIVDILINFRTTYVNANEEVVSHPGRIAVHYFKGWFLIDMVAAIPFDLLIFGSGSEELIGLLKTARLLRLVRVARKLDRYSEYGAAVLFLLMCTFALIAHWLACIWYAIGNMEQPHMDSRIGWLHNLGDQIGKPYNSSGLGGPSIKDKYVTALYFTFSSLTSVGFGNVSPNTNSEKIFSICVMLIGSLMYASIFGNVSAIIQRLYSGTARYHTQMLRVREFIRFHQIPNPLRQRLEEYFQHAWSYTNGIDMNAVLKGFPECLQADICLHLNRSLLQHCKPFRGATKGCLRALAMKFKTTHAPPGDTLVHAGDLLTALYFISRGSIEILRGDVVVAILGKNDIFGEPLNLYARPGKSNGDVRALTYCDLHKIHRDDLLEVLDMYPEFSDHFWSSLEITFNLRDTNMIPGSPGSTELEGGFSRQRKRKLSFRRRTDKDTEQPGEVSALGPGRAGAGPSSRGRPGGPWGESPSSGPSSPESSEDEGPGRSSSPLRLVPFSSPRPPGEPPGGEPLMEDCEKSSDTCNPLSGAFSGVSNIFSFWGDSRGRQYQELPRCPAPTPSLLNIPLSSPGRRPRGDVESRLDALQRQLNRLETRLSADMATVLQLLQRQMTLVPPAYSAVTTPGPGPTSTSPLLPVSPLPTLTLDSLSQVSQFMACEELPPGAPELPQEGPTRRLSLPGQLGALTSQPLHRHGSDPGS

CN1CCN(CCCCN2C(=O)CN(/N=C/c3ccc(-c4ccc(Cl)cc4)o3)C2=O)CC1 [Azimilide]
IC50: 1.91 µM
Ki: 0.954 µM
